Tests used:
[1] = test system: blue-stain fungi and molds; test: Activity against blue-stain fungi and molds on a stick test on vermiculite (paint film); design: key to Surface score of wooden sticks treated with paint formulation, C. cladosporioides / Surface score of wooden sticks treated with paint formulation, P. purpurogenum / Surface score of wooden sticks treated with paint formulation, P. violacea / Surface score of wooden sticks treated with paint formulation, R rubra (y) / Surface score of wooden sticks treated with paint formulation, S. chartarum / Surface score of wooden sticks treated with paint formulation, A. versicolor / Surface score of wooden sticks treated with paint formulation, A. pullulans: 0: No growth; Trace of growth of up to 1% coverage of the test inoculated area; 2: Growth covering between 1 and 10% of the inoculated test area; Growth covering between 10 and 30% of the inoculated test area; 4: Growth covering between 30 and 70% of the inoculated test area; 5: Growth covering more than 70t of the inoculated test area; conditions: 12 weeks on vermiculite; for Surface score of wooden sticks treated with paint formulation, R rubra (y): R rubra (yeast)
How it was run: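 Painted, γ-sterilised beech sticks dipped in spore suspensions of each fungus, then held on moist vermiculite for 12 weeks. Surface fungal growth scored visually on a 0 (none) to 5 (over 70% of inoculated area) scale.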

[2] = test system: mixed spore suspension of blue-stain fungus and molds; test: Activity against blue-stain fungi and molds in a mold cabinet test (BS3900: Part G6); design: key: 0: No growth; Trace of growth of up to 1% coverage of the test inoculated area; 2: Growth covering between 1 and 10% of the inoculated test area; Growth covering between 10 and 30% of the inoculated test area; 4: Growth covering between 30 and 70% of the inoculated test area; 5: Growth covering more than 70t of the inoculated test area
How it was run: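 Painted Scots pine sticks, sterilized by irradiation, were treated with compound solutions, dipped in mixed spore suspension and held in a mold chamber for 12 weeks. Surface growth scored 0 (none) to 5 (>70% of inoculated area covered).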

| Compound | Surface score of wooden sticks treated with paint formulation, A. pullulans ([1]; 0.15% a.i. in paint) | Surface score of wooden sticks treated with paint formulation, A. pullulans ([1]; 0.3% a.i. in paint) | Surface score of wooden sticks treated with paint formulation, A. versicolor ([1]; 0.15% a.i. in paint) | Surface score of wooden sticks treated with paint formulation, A. versicolor ([1]; 0.3% a.i. in paint) | Surface score of wooden sticks treated with paint formulation, C. cladosporioides ([1]; 0.15% a.i. in paint) | Surface score of wooden sticks treated with paint formulation, C. cladosporioides ([1]; 0.3% a.i. in paint) | Surface score of wooden sticks treated with paint formulation, P. purpurogenum ([1]; 0.15% a.i. in paint) | Surface score of wooden sticks treated with paint formulation, P. purpurogenum ([1]; 0.3% a.i. in paint) | Surface score of wooden sticks treated with paint formulation, P. violacea ([1]; 0.15% a.i. in paint) | Surface score of wooden sticks treated with paint formulation, P. violacea ([1]; 0.3% a.i. in paint) | Surface score of wooden sticks treated with paint formulation, R rubra (y) ([1]; 0.15% a.i. in paint) | Surface score of wooden sticks treated with paint formulation, R rubra (y) ([1]; 0.3% a.i. in paint) | Surface score of wooden sticks treated with paint formulation, S. chartarum ([1]; 0.15% a.i. in paint) | Surface score of wooden sticks treated with paint formulation, S. chartarum ([1]; 0.3% a.i. in paint) | Surface score of wooden sticks treated with paint formulation, U. atrum ([1]; 0.15% a.i. in paint) | Surface score of wooden sticks treated with paint formulation, U. atrum ([1]; 0.3% a.i. in paint) | Surface score in a paint formulation in a mold cabinet test, 6 weeks ([2]; 0.15% in water-based paint) | Surface score in a paint formulation in a mold cabinet test, 12 weeks ([2]; 0.15% in water-based paint) | Surface score in a paint formulation in a mold cabinet test, 6 weeks ([2]; 0.3% in water-based paint) | Surface score in a paint formulation in a mold cabinet test, 12 weeks ([2]; 0.3% in water-based paint) |
| --- | --- | --- | --- | --- | --- | --- | --- | --- | --- | --- | --- | --- | --- | --- | --- | --- | --- | --- | --- | --- |
| [O-][S+]1CCON=C1c1cccs1 (stereo not shown) [Compound 8] | 0 | 0 | 0 | 0 | 0 | 0 | 0 | 0 | 4 (Growth covering between 30 and 70% of the inoculated test area) | 0 | 1 (Trace of growth of up to 1% coverage of the test inoculated area) | 1 (Trace of growth of up to 1% coverage of the test inoculated area) | 0 | 0 | 1 (Trace of growth of up to 1% coverage of the test inoculated area) | 1 (Trace of growth of up to 1% coverage of the test inoculated area) | 0 | 2.0 | 0 | 1.5 |
| O=S1(=O)CCON=C1c1cccs1 [Compound 34] | 0 | 0 | 0 | 0 | 0 | 0 | 4 (Growth covering between 30 and 70% of the inoculated test area) | 1 (Trace of growth of up to 1% coverage of the test inoculated area) | 4 (Growth covering between 30 and 70% of the inoculated test area) | 1 (Trace of growth of up to 1% coverage of the test inoculated area) | 3 (Growth covering between 10 and 30% of the inoculated test area) | 0 | 1 (Trace of growth of up to 1% coverage of the test inoculated area) | 0 | 3 (Growth covering between 10 and 30% of the inoculated test area) | 1 (Trace of growth of up to 1% coverage of the test inoculated area) | 0.5 | 1.5 | 0 | 1.0 |

From patent US6372297B1, “Wood preservative oxathiazines” (Uniroyal Chemical Company, Inc., priority 1993, dated 2002)
